The supplement of paper PMC10307832

What was measured:
Assay in all cases: relative viability (nuclei count vs DMSO), 5 days (fraction); higher = more cells survive
[1] = compound: Cc1ccc2nc(NCCN)c3ncc(C)n3c2c1 + Cc1nc(Nc2ncc(C(=O)Nc3c(C)cccc3Cl)s2)cc(N2CCN(CCO)CC2)n1 [Dasatinib] (partner 0.075 µM)
Procedure, shortened: (§1)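 Lung cancer cell lines in 1536-well plates got either a single drug or a fixed anchor-drug dose together with five library-drug doses (not always all listed) in √10 steps, by pin tool, on the day after seeding. Nuclei were counted after 5 days, and relative viability is the treated-to-vehicle ratio of nuclei counts. Values are medians of duplicate plates.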

Salubrinal + Crizotinib = compound: O=C(/C=C/c1ccccc1)NC(NC(=S)Nc1cccc2cccnc12)C(Cl)(Cl)Cl [Salubrinal] + C[C@@H](Oc1cc(-c2cnn(C3CCNCC3)c2)cnc1N)c1c(Cl)ccc(F)c1Cl [Crizotinib] (partner 1 µM)
Procedure, shortened: as §1

Salubrinal + Olaparib = compound: O=C(/C=C/c1ccccc1)NC(NC(=S)Nc1cccc2cccnc12)C(Cl)(Cl)Cl [Salubrinal] + O=C(c1cc(Cc2n[nH]c(=O)c3ccccc23)ccc1F)N1CCN(C(=O)C2CC2)CC1 [Olaparib] (partner 8 µM)
Procedure, shortened: as §1

[2] = compound: Cc1ccc2nc(NCCN)c3ncc(C)n3c2c1 + CS(=O)(=O)CCNCc1ccc(-c2ccc3ncnc(Nc4ccc(OCc5cccc(F)c5)c(Cl)c4)c3c2)o1 [Lapatinib] (partner 2 µM)
Procedure, shortened: as §1

| Cell Line | relative viability ([1]; first compound 0.04 µM) | relative viability ([1]; first compound 0.1265 µM) | relative viability ([1]; first compound 0.4 µM) | relative viability ([1]; first compound 1.265 µM) | relative viability ([1]; first compound 4 µM) | relative viability (Salubrinal + Crizotinib; first compound 0.08 µM) | relative viability (Salubrinal + Crizotinib; first compound 0.253 µM) | relative viability (Salubrinal + Crizotinib; first compound 0.8 µM) | relative viability (Salubrinal + Crizotinib; first compound 2.53 µM) | relative viability (Salubrinal + Crizotinib; first compound 8 µM) | relative viability (Salubrinal + Olaparib; first compound 0.08 µM) | relative viability (Salubrinal + Olaparib; first compound 0.253 µM) | relative viability (Salubrinal + Olaparib; first compound 0.8 µM) | relative viability (Salubrinal + Olaparib; first compound 2.53 µM) | relative viability (Salubrinal + Olaparib; first compound 8 µM) | relative viability ([2]; first compound 0.04 µM) | relative viability ([2]; first compound 0.1265 µM) | relative viability ([2]; first compound 0.4 µM) | relative viability ([2]; first compound 1.265 µM) | relative viability ([2]; first compound 4 µM) |
| --- | --- | --- | --- | --- | --- | --- | --- | --- | --- | --- | --- | --- | --- | --- | --- | --- | --- | --- | --- | --- |
| HCC-827 | 0.33 | 0.239 | 0.291 | 0.266 | 0.227 | 0.901 | 0.921 | 0.992 | 0.475 | 0.844 | 0.684 | 0.646 | 0.647 | 0.629 | 0.664 | 0.21 | 0.207 | 0.191 | 0.195 | 0.209 |
| NCI-H1355 | 0.712 | 0.728 | 0.678 | 0.667 | 0.638 | 1.18 | 1.12 | 1.12 | 1.12 | 1.03 | 0.775 | 0.903 | 0.75 | 0.766 | 0.643 | 1.02 | 0.981 | 0.962 | 0.952 | 0.988 |
| NCI-H1734 | 0.515 | 0.456 | 0.474 | 0.447 | 0.409 | 0.694 | 0.774 | 0.842 | 0.674 | 0.772 | 0.699 | 0.6 | 0.651 | 0.583 | 0.637 | 1.11 | 1 | 1.13 | 1.07 | 0.941 |
| HARA | 0.295 | 0.282 | 0.313 | 0.243 | 0.255 | 1.21 | 0.911 | 1.03 | 1.14 | 0.868 | 0.834 | 1.17 | 0.907 | 0.682 | 0.634 | 0.748 | 0.863 | 0.553 | 0.691 | 0.821 |
| HCC-15 | 0.703 | 0.666 | 0.646 | 0.575 | 0.391 | 0.984 | 0.651 | 0.946 | 0.883 | 0.785 | 0.766 | 0.711 | 0.784 | 0.702 | 0.68 | 0.888 | 0.811 | 0.776 | 0.75 | 0.737 |
| LCLC-97TM1 | 0.941 | 0.816 | 0.85 | 0.911 | 0.732 | 0.382 | 0.507 | 0.446 |  | 0.364 | 0.289 | 0.345 | 0.376 | 0.412 | 0.383 | 1.06 | 1.42 | 0.78 | 1.33 | 1 |
| RERF-LC-KJ | 0.873 | 0.698 | 0.757 | 0.748 | 0.503 | 0.81 | 0.718 | 0.803 | 0.806 | 0.887 | 0.901 | 0.838 | 0.996 | 0.753 | 0.951 | 0.834 | 0.925 | 0.911 | 0.809 | 0.84 |
| NCI-H1651 | 0.472 | 0.441 | 0.422 | 0.395 | 0.392 | 0.923 | 0.864 | 0.925 | 0.858 | 0.9 | 0.189 | 0.181 | 0.208 | 0.152 | 0.183 | 0.853 | 0.879 | 0.841 | 0.894 | 0.737 |
| NCI-H2023 | 0.711 | 0.565 | 0.608 | 0.548 | 0.388 | 0.674 | 0.672 | 0.68 | 0.635 | 0.614 | 0.472 | 0.428 | 0.435 | 0.373 | 0.524 | 0.949 | 0.884 | 0.651 | 1.26 | 0.69 |
| LC-2-ad | 0.701 | 0.582 | 0.497 | 0.592 | 0.324 | 0.447 | 0.385 | 0.537 | 0.471 | 0.459 | 0.677 | 0.708 | 0.729 | 0.728 | 0.709 | 0.939 | 0.922 | 0.915 | 0.945 | 0.89 |
| NCI-H1437 | 0.379 | 0.419 | 0.438 | 0.399 | 0.351 | 0.975 | 0.77 | 1.02 | 0.909 | 0.758 | 0.673 | 0.547 | 0.665 | 0.614 | 0.543 | 0.817 | 0.794 | 0.777 | 0.819 | 0.733 |
| SK-LU-1 | 0.162 | 0.202 | 0.181 | 0.166 | 0.167 | 1.23 | 0.717 | 1.1 | 0.938 | 0.841 | 0.508 | 0.452 | 0.476 | 0.454 | 0.378 | 1.06 | 0.951 | 0.889 | 0.948 | 0.852 |
| H3255 | 0.396 | 0.393 | 0.45 | 0.383 | 0.387 | 1.16 | 0.823 | 1.12 | 0.804 | 0.775 | 0.618 | 0.62 | 0.595 | 0.526 | 0.569 | 0.275 | 0.268 | 0.398 | 0.252 | 0.283 |
| NCI-H1792 | 0.741 | 0.624 | 0.816 | 0.704 | 0.382 | 1.14 |  | 1.33 | 0.929 | 0.859 | 0.531 |  | 0.583 | 0.287 | 0.408 | 0.944 | 0.904 | 0.837 | 0.857 | 0.81 |
| NCI-H2170 | 0.565 | 0.646 | 0.58 | 0.58 | 0.564 | 1.45 | 1.06 | 1.38 | 1.26 | 1.21 | 0.65 | 0.632 | 0.668 | 0.641 | 0.636 | 0.307 | 0.263 | 0.249 | 0.302 | 0.26 |
| NCI-H1650 | 0.33 | 0.312 | 0.273 | 0.282 | 0.226 | 1.06 | 0.859 | 1.02 | 0.882 | 0.942 | 0.941 | 0.705 | 0.811 | 0.751 | 0.804 | 0.887 | 0.764 | 0.434 | 0.836 | 0.65 |
